Key:
sperm = assay: CASA sperm motility assessment; format: cell-based, human; details: for maintaining percentage of motile and progressive sperm and VAP: 24 and 48 hour
Description: FIG. 1 illustrates the evaluation of the cytoprotective and antioxidant compound ergothionine for ability to preserve sperm motility and progression, wherein sperm were separated from seminal fluid by density gradient centrifugation, washed in sperm wash media, and incubated in multipurpose handling medium for 48 hours in the presence of antioxidant, wherein path velocity (A) and sperm motility (B) were quantified by CASA, wherein for statistical analysis the log ratio to control was used as the dependent variable in ONEWAY ANOVA with posthoc testing by Dunnet's test (comparisons against a single ‘control’ value only), wherein N>12 per group;
FIG. 4 illustrates ergothionine effectively maintains sperm motility and progression, wherein sperm were separated from seminal fluid by density gradient centrifugation, washed in sperm wash media and incubated in multipurpose handling medium in the presence of ergothionine at 1 mM for 24 hours (A-C) or 48 hours (D-F) or in the presence of ergothionine at 0.1 mM for 24 hours (G-I) or 48 hours (J-L), wherein sperm motility was analysed using CASA, wherein statistical analysis was performed using the Wilcoxon signed-rank, wherein N=26 per group for ergothionine at 1 mM and N=10 per group for 0.1 mM ergothionine;
FIG. 8 illustrates a head-to-head comparison of the effect of a commercially available composition and the composition on sperm motility, wherein sperm were separated from seminal fluid by density gradient centrifugation, washed in sperm wash media and incubated in multipurpose handling medium in the presence of the commercially available composition (A,B) and the composition (C,D) for a period of 30 minutes, wherein sperm motility was analysed using CASA, wherein statistical analysis was performed using the Wilcoxon signed-rank test, wherein N=6 per group; and
Sperm motility assessments were carried out by Computer Assisted Sperm Analysis (CASA) using the Hamilton Thorne software and a Zeiss microscope, following WHO and manufacturers' guidelines. Briefly, semen samples were resuspended using Pasteur pipettes and diluted 1 in 3 in sperm wash media (Irvine Scientific, 9983). […] Motility assessment was evaluated by capturing at least 1000 sperm cell tracks per slide for unprocessed samples and 300 for processed samples. Total cell count (×10e6/ml), percentage immotile (IM), non-progressively motile (NP) and progressively motile (PR) sperm and average path velocity (VAP) for M and PM sperm was recorded for each sample as defined by World Health Organisation (WHO) laboratory manual for the examination and processing of human semen (fifth edition, 2010). […]

8-OH-G on sperm DNA = assay: Flow cytometric assay of oxidative DNA damage (8-OHG) on sperm DNA; format: cell-based, human
Description: FIG. 3 illustrates evaluating the effect of ergothionine on sperm oxidative DNA damage, wherein sperm were separated from seminal fluid by density gradient centrifugation, washed in sperm wash media, and incubated in multipurpose handling medium for 48 hours in the presence of the cytoprotective and antioxidant compound ergothionine, wherein sperm were fixed in 4% PFA and stained with FITC labelled 8-OHG antibody (2 μg/ml) for 60 mins, washed and analysed by flow cytometry, wherein data were analyzed using FlowJo software and the mean fluorescent intensity (MFI) plotted, wherein statistical analysis was performed using the Wilcoxon signed-rank test, wherein N=6 per group;
A total of 1×10e6 washed semen samples were fixed by re-suspending the washed sperm cell pellet in 500 μl of 4% paraformaldehyde (Chem Cruz, 281692), pH 7.2 and incubating for 20-30 minutes at RT. Fixed spermatozoa were centrifuged at 2,500×g for 1.5 minutes and washed twice in 500 μl 1% NGS-PBS buffer.
Measurement of oxidative DNA damage was determined using anti-DNA/RNA [15A3] […]
ROS and DNA damage are the most significant contributors to male infertility. […] In measuring this parameter, a flow cytometric assay was developed that could quantify the amount of 8-hydroxyguanine (8-OH-G) in the DNA of individual sperm by the use of a specific fluorescently-labelled monoclonal antibody (see FIG. 2).

[1] = test system: mouse oocytes with mouse sperm; assay: In vitro fertilisation and embryo development to blastocyst; format: cell-based; details: Example 6, control PBS
Description: To evaluate this, in vitro fertilisation studies were performed in the presence of the composition at a concentration of 10% and subsequent embryo development examined to blastocyst stage (see FIG. 7).

rats [2] = details: 2 g/kg; cited from earlier work
rats [3] = details: fed 0.9% of diet for 13 weeks; cited from earlier work
embryo development = details: 0.1 mM; cited from earlier work
[4] = test system: bovine embryo development; details: cited from earlier work
sheep oocytes = details: cited from earlier work
[5] = cited from earlier work

C[N+](C)(C)[C@@H](Cc1c[nH]c(=S)[nH]1)C(=O)[O-] [ergothionine]
effects on sperm motility and average path velocity (VAP) (sperm; 48 hours in multipurpose handling medium, FIG. 1): sperm protective properties
maintaining percentage of motile and progressive sperm and VAP (sperm; ergothionine 0.1 mM, p values 0.04 for all parameters): effective at maintaining the percentage of motile and progressive sperm in addition to the speed of the movement (VAP)
maintaining percentage of motile and progressive sperm and VAP (sperm; ergothionine 1 mM, p values 0.002 for all parameters): effective at maintaining the percentage of motile and progressive sperm in addition to the speed of the movement (VAP)
toxicity / effect on sperm motility and progression (sperm; ergothionine 1 mM, 48 hour): effective and non-toxic, with no negative effect on sperm motility and progression
protection against 8-OH-G formation on sperm DNA (8-OH-G on sperm DNA; ergothionine 0.1 mM, 48 hour, FIG. 3a): ability to protect against 8-OH-G formation on sperm DNA
cytoprotective effect against 8-OH-G formation (dose dependence) (8-OH-G on sperm DNA; ergothionine 1 mM vs 0.1 mM, 48 hours, FIG. 3b): even greater cytoprotective effect
effectiveness of exposed sperm in fertilisation versus PBS [1]: more effective that those exposed to PBS
adverse effects in rats (rats [2]): no adverse effects observed
impact on fertility in rats (rats [3]): no negative impact on fertility
safety for embryo development (embryo development): safe for embryo development
concentrations beneficial for bovine embryo development [4]: up to 0.1 mM
concentrations that negatively affect bovine embryo development [4]: > 0.5 mM
concentrations beneficial for in vitro maturation of sheep oocytes (sheep oocytes): up to 10 mM
water solubility [5]: water soluble
